Experiment: Growth inhibitory activity against mouse lymphoblastoid L1210TS cell line was determined as inhibition of thymidylate synthase

IC50: > 50 µM
Structure (SMILES): C#CCN(Cc1cc2c(=O)n(C)c(CN(CC)CC)nc2cc1Cl)c1ccc(C(=O)NCc2cccnc2)cc1 [4-[(7-Chloro-2-diethylaminomethyl-3-methyl-4-oxo-3,4-dihydro-quinazolin-6-ylmethyl)-prop-2-ynyl-amino]-N-pyridin-3-ylmethyl-benzamide]

Source: BindingDB's records for doi:10.1021/jm011081s (The Institute of Cancer Research, 2002)
